In brackets after ≈: the same amount, converted by molar mass. Where only a bound is given, the exact number is not on record here.

For the data set the following is noted: buffer; pH 7.4; 200.0 µM.
`Cn1c(O)c(C(=Nc2ccc(F)cc2)c2ccccc2Cl)c(=O)n(C)c1=O` showed a kinetic solubility of 1.8 µg/mL (≈ 4.64 µM).
Under `CCC(C(=O)OCCOCCN(CC)CC)c1ccccc1` (centres undefined) stands 41.1 µg/mL (≈ 134 µM); under `CN1CCCN(S(=O)(=O)c2ccc3ccccc3c2)CC1`, above 45.7 µg/mL.
Under `Cc1ccc(C(=O)NC2CCCCCCC2)c(Cl)c1` stands 3.2 µg/mL (≈ 11.4 µM).
Under `COCCN1Cc2cc(=O)n3c([nH]c4ccccc43)c2C1=N` stands 5.1 µg/mL (≈ 17.2 µM); under `CNC(=O)COC(=O)c1ccc(Cl)c(S(N)(=O)=O)c1`, above 46 µg/mL; under `O=C(CCSCc1ccccc1Cl)NCc1cccs1`, 32.4 µg/mL (≈ 99.4 µM).
In turn, `CC1Cc2ccccc2N1S(=O)(=O)c1cnc(Cl)c(Br)c1` (centres undefined) yielded a solubility (kinetic) below 0.4 µg/mL.
Under `N#Cc1c(NC(=O)c2ccco2)sc2c1CCC2` stands 9.4 µg/mL (≈ 36.4 µM).
Under `N#CC1(NC(=O)CSc2nc3ccccc3o2)CCCCC1` stands above 47.3 µg/mL; under `O=C(COC(=O)C1CC2C=CC1C2)Nc1ccccc1[N+](=O)[O-]` (centres undefined), 29.4 µg/mL (≈ 92.9 µM); under `O=C(Nc1nc(-c2ccncc2)cs1)c1ccc(F)cc1`, below 0.2 µg/mL.
Under `Cc1cc(NS(=O)(=O)c2ccc(NC(=O)/C=C/c3ccccc3)cc2)nc(C)n1` stands above 61.3 µg/mL; under `CC(C)CCN(C(=O)c1ccccn1)c1c(N)n(Cc2ccccc2)c(=O)[nH]c1=O`, 56.9 µg/mL (≈ 140 µM).
The compound `Cc1ccc(NC(=O)C(C)SCc2ccccc2)cc1` (centres undefined) returned a solubility (kinetic) of 32.8 µg/mL (≈ 115 µM).
Under `CC1NCCC2(O)CCCCC12` (centres undefined) stands above 25.4 µg/mL.
With `Cc1nc2sccn2c(=O)c1CCN1CCC(=C(c2ccc(F)cc2)c2ccc(F)cc2)CC1`, the kinetic solubility was found to be 12.2 µg/mL (≈ 25.5 µM).
For the compound `CN(Cc1nc2ccccc2n1C)C(=O)c1ccco1`, the kinetic solubility was 39.9 µg/mL (≈ 148 µM). Against the preceding compound, the solubility kinetic is about 3.3-fold higher.
`CC(=O)c1c(C)[nH]c(C(=O)OCc2cccc(C)c2)c1C` displayed a solubility (kinetic) of 4.2 µg/mL (≈ 14.7 µM).
Under `Cn1c(=O)c2cc3c(nc2n(C)c1=O)CC(c1ccccc1)CC3=O` (centres undefined) stands 0.5 µg/mL (≈ 1.49 µM); under `CC1=CC(C)C(C(=O)O)C(C(=O)N2CCN(C)CC2)C1` (centres undefined), above 42.1 µg/mL; under `O=C(O)c1ccn(CSc2cc(Cl)ccc2Cl)n1`, above 45.5 µg/mL.
Under `CC(NC(=O)COC(=O)c1cc(=O)c2ccccc2o1)c1ccccc1` (centres undefined) stands above 52.7 µg/mL; under `O=C(CCCc1ccccc1)Nc1ccccc1[N+](=O)[O-]`, 15.2 µg/mL (≈ 53.5 µM).
Under `O=C(N/C(=C\c1ccco1)C(=O)N1CCCC(CO)C1)c1ccccc1` (centres undefined) stands above 53.2 µg/mL; under `Cn1c(=NC(=O)COc2ccccc2)sc2cc(F)cc(F)c21`, below 0.4 µg/mL; under `COc1ccccc1OCC(=O)NC1CCCc2ccccc21` (centres undefined), 41.6 µg/mL (≈ 134 µM).
`COc1ccc(NC(=O)C2CCCN(c3cnccn3)C2)cc1` (centres undefined): the kinetic solubility was above 46.9 µg/mL.
As for `N/C(=N\OC(=O)Nc1cccc(C(F)(F)F)c1)c1ccno1`, the solubility (kinetic) worked out at 18.7 µg/mL (≈ 59.5 µM).
With `CCOc1ccc2[nH]c3c(NCCCOC)ncnc3c2c1`, the solubility (kinetic) is 36.4 µg/mL (≈ 121 µM).
Under `Cc1cc(/C=C/C(=O)O)c(C)n1-c1ccc(Cl)cc1` stands above 41.4 µg/mL; under `Cc1cc(/C(N)=N/OC(=O)c2cccc(Cl)c2)no1`, 2.2 µg/mL (≈ 7.87 µM); under `CCOc1ccc(CC(=O)Nc2nccs2)cc1OCC`, 31.7 µg/mL (≈ 103 µM).
As to `COc1ccc(OC)c(/C=C2\SC(N3CCCC(C)C3)=NC2=O)c1` (centres undefined), the solubility (kinetic) was found to be 22.1 µg/mL (≈ 63.8 µM).
On to `O=C(NCc1ccc(Cl)cc1)c1ccncc1`, for which the solubility (kinetic) is above 37 µg/mL.
As to `CC(C)=C(NC(=O)c1ccccc1)C(N)=O`, the solubility (kinetic) was above 32.7 µg/mL.
Under `Cc1ccccc1NS(=O)(=O)c1ccc(C(=O)N(C)CC(=O)Nc2ccccc2Br)cc1` stands 73 µg/mL (≈ 141 µM); under `COc1ccc(CCNC(=O)C2CCCN(c3ncccn3)C2)cc1` (centres undefined), 49 µg/mL (≈ 144 µM); under `CCOC(=O)C1CCCN(CCC(=O)Nc2ccccc2C)C1.Cl` (centres undefined), above 53.2 µg/mL.
Under `O=C(NC1CCCC1)C1CCCN(S(=O)(=O)c2ccc(F)cc2)C1` (centres undefined) stands 3.4 µg/mL (≈ 9.59 µM); under `Cn1c(=O)c(=O)n(C)c2cc([N+](=O)[O-])c(N3CCOCC3)cc21`, above 48 µg/mL.
Under `O=C(Nc1cccc(Br)c1)c1cc(=O)c2ccccc2o1` stands below 0.7 µg/mL.
Take `Cc1cc(C(=O)Nc2cc(S(C)(=O)=O)ccc2Cl)c(C)o1`: the solubility (kinetic) was determined as 11.8 µg/mL (≈ 36 µM).
Under `O=C(CNC(=O)c1ccc(C(F)(F)F)cc1)NC1CC1` stands above 42.9 µg/mL; under `Cc1cc(C(=O)NCC2CCCCC2)ccc1[N+](=O)[O-]`, 2.3 µg/mL (≈ 8.32 µM).
Under `COc1cccc(NC(=O)CN(C)C(=O)C2=COCCO2)c1` stands 43.1 µg/mL (≈ 141 µM); under `N#CCN1C(=O)C(=O)N(Cc2cccc(C(F)(F)F)c2)C1=O`, 42.6 µg/mL (≈ 137 µM); under `CC(C)(C)c1ccc(-c2noc(-c3ccno3)n2)cc1`, below 0.2 µg/mL.
Under `CC(NC(=O)CCc1ccccc1)c1ccc2c(c1)OCO2` (centres undefined) stands 42 µg/mL (≈ 141 µM); under `O=C(NCc1ccc2c(c1)OCO2)Nc1ccc(Cl)cc1`, 0.8 µg/mL (≈ 2.63 µM).
The compound `Cc1[nH]c(=O)nc(SCc2cccc(Cl)c2)c1C#N` showed a solubility (kinetic) of 12.2 µg/mL (≈ 41.8 µM).
Under `Cc1cccc(C(=O)Nc2cccc(C(=O)NC3CCCC3)c2)c1` stands 23.6 µg/mL (≈ 73.2 µM); under `COc1cc(C=O)ccc1OCC(=O)N1CCCC1`, above 39.5 µg/mL.
As for `COc1ccc(Cc2nc(C)cc(Cl)n2)cc1[N+](=O)[O-].Cl`, the solubility (kinetic) is above 49.5 µg/mL.
Consider `Fc1ccc(NC(=S)NCc2cccnc2)cc1`, for which the solubility (kinetic) was above 39.2 µg/mL.
Under `COc1ccc(NC(=O)c2ccccc2-c2ccccc2C(=O)O)cc1` stands above 52.1 µg/mL.
Under `CC1CCCCC12NC(=O)N(Cc1cc(=O)n3ccsc3n1)C2=O` (centres undefined) stands above 52 µg/mL.
In the case of `COc1ccc2o/c(=N\O)c(C(=O)Nc3ccc(C)cc3)cc2c1`, the kinetic solubility is 11.7 µg/mL (≈ 36.1 µM).
Under `Cc1cnc(NC(=O)CSCc2c(C)noc2C)s1` stands 19.6 µg/mL (≈ 65.9 µM); under `CCOC(=O)CN=C/C(C(C)=O)=C(/C)O`, above 32 µg/mL; under `CCOc1ccc(/C=C2\SC(N3CCCCC3)=NC2=O)cc1`, 1.6 µg/mL (≈ 5.06 µM).
Under `Cc1nc(SCC(=O)NC2CCCCC2C)nc(C)c1C` (centres undefined) stands above 46.1 µg/mL; under `Nc1c(C(=O)N2CCCC2)sc2nc3c(cc12)CCCCCC3`, 3.2 µg/mL (≈ 9.71 µM); under `Cc1ccc(/C=C/C(=O)O)cc1S(=O)(=O)N1CCCc2ccccc21`, above 53.6 µg/mL.
Turning to `CNS(=O)(=O)c1cccc(C(=O)OCC(=O)N2CCN(C(=O)c3ccco3)CC2)c1`, the kinetic solubility is above 65.3 µg/mL.
Under `Cc1cccc(NC(=O)COC(=O)COc2ccc3c(c2)CCC3)c1` stands 5.7 µg/mL (≈ 16.8 µM); under `Cc1cc(C)c(NC(=O)COC(=O)C2CCC(=O)N2)c(C)c1` (centres undefined), above 45.7 µg/mL.
Under `COc1cccc(OC)c1C1=NC(C)(C)CO1` stands above 35.3 µg/mL; under `CCN(CC)C(=O)c1ccccc1NC(=O)c1ccccc1`, above 44.5 µg/mL; under `CCOC(=O)C1CCCN(C(=O)c2ccccc2NS(=O)(=O)c2ccc(F)cc2)C1` (centres undefined), above 65.2 µg/mL.
Under `Cc1ccnc(NC(=O)CCC(=O)c2cc(C)sc2C)c1` stands 3.7 µg/mL (≈ 12.2 µM); under `CCCCC(=O)Nc1cccc(C(C)O)c1` (centres undefined), above 33.2 µg/mL.
For `C/C(N)=C(/C#N)C(=O)COC(=O)c1ccc(OCC2CCCO2)cc1` (centres undefined), the solubility (kinetic) was 51.5 µg/mL (≈ 150 µM).
Under `CC(=O)N/N=C(\C)c1cccc(C(F)(F)F)c1` stands above 36.6 µg/mL.
Under `O=C1CSCC(=O)N1Cc1ccc(Cl)c(Cl)c1` stands 43.2 µg/mL (≈ 149 µM); under `CC(=O)c1cccc(NC(=O)N2CC(C)OC(C)C2)c1` (centres undefined), above 41.5 µg/mL.
Under `OCC(O)CN(c1ccccc1)c1ccccc1` (centres undefined) stands above 36.5 µg/mL; under `CC(=O)c1cccc(NC(=O)/C(=C/c2ccncc2)NC(=O)c2ccccc2)c1`, 4.2 µg/mL (≈ 10.9 µM); under `O=C(COc1ccccc1[N+](=O)[O-])Nc1cccnc1`, 17.3 µg/mL (≈ 63.3 µM).
In turn, `COc1ccc(CNC(=O)c2ccc3ccccc3n2)cc1` came in with a solubility (kinetic) of 18.4 µg/mL (≈ 62.9 µM).
Under `Cc1cc2nc(-c3ccc(=O)[nH]c3)n(C)c2cc1C` stands 14.1 µg/mL (≈ 55.7 µM); under `COC(=O)CCC(=O)NC(=S)Nc1ccc(S(=O)(=O)Nc2cc(C)on2)cc1`, 57.4 µg/mL (≈ 135 µM); under `N#Cc1nc(-c2ccccc2)oc1N1CCC(C(N)=O)CC1`, 39.7 µg/mL (≈ 134 µM).
Under `CCN1CCN(C(=O)CSc2ccc(C)cc2)CC1` stands 41.2 µg/mL (≈ 148 µM); under `CC(=O)C1=C(O)C(=O)N(C)C1c1ccccc1[N+](=O)[O-]` (centres undefined), above 41.4 µg/mL.
Regarding `CCCC(=O)Nc1nnc(SCC(=O)NC2CC2)s1`, the kinetic solubility was above 45.1 µg/mL.
Under `Cc1cccc2c(C(=O)O)c3cccc(C)c3nc12` stands 34 µg/mL (≈ 135 µM); under `O=c1c2ccccc2nc(-c2ccco2)n1CCc1ccc(O)cc1`, 7.9 µg/mL (≈ 23.8 µM); under `Cc1cc(C(=O)Nc2ccccc2C)on1`, above 32.4 µg/mL.
Under `COc1ccc(NC(=O)c2ccc3[nH]c(C)c(C)c3c2)c(OC)c1` stands 1.9 µg/mL (≈ 5.86 µM); under `COCCCNC(=S)Nc1cccc2ncccc12`, 40.9 µg/mL (≈ 149 µM); under `COc1ccc(NC(=S)NC(=O)Cc2ccccc2)c(OC)c1`, 1.7 µg/mL (≈ 5.15 µM).
Under `CN(CC(=O)N1CCCC1)S(=O)(=O)c1cccc(Cl)c1` stands above 47.5 µg/mL.
Regarding `COc1ccc(NC(=O)N2CCOCC2)cc1`, the kinetic solubility was above 35.4 µg/mL.
Turning to `COc1ccc(NC(=O)Nc2cnccn2)c(OC)c1`, the kinetic solubility was determined as 3.4 µg/mL (≈ 12.4 µM).
Regarding `Cc1nonc1OCCN1CCN(c2ccc([N+](=O)[O-])cc2)CC1`, the solubility (kinetic) worked out at 42.6 µg/mL (≈ 128 µM).
Under `Cc1cccc(NC(=O)c2ccc3c(c2)OCCO3)c1` stands 35.5 µg/mL (≈ 132 µM).
Under `Cn1ccnc1SCC(=O)NC1CCCC1` stands 28.8 µg/mL (≈ 120 µM).
Under `CC(C)(C)NC(=O)NC(=O)CSc1ncccn1` stands above 40.2 µg/mL; under `CC1CCC2(CC1)NC(=O)N(CC(=O)NCc1ccc3c(c1)OCO3)C2=O` (centres undefined), 6.1 µg/mL (≈ 16.3 µM); under `O=C(NCCN1CCOCC1)c1cc(Br)ccc1Cl`, above 52.1 µg/mL.
`COc1ccc(N2C(=O)NC(NC(=O)C(C)(C)C)(C(F)(F)F)C2=O)cc1` (centres undefined) registered a solubility (kinetic) above 56 µg/mL.
`O=C(Nc1ccc2c(c1)OCCO2)c1ccc(Br)cc1`: the solubility (kinetic) is below 0.7 µg/mL.
In the case of `COc1ccc(CCCc2n[nH]c(=S)o2)cc1C`, the kinetic solubility is above 39.7 µg/mL.

By kinetic solubility is commonly meant solubility judged after dilution from a stock solution rather than from solid.

Source of the values: PubChem BioAssay AID1996.
